According to patent publication US12357711B2, “PSMA binding dual mode radiotracer and therapeutic” (Technische Universität München, priority 2019, dated 2025):
Where “and” joins values, the source holds several entries; their conditions need not be identical. Identical values can stand only once. Like-named read-outs stand apart in the source and are kept apart here.

What was measured:
[1] = test system: LNCaP tumor-bearing SCID mice; test: Biodistribution at 1 h p.i.; format: in vivo
Description: FIG. 10: Biodistribution (in % ID/g) of ^18E-labeled rhPSMA tracers at 1 h p.i in LNCaP tumor-bearing SCID mice. Data are expressed as mean±SD (n=4 for rhPSMA7.1, n=5 for 7.2, n=4 for 7.3, n=5 for 7.4 and n=3 for 7-rac).

[2] = test system: PSMA-positive LNCaP cells; test: Internalization in LNCaP cells, normalized to ([125I]I-BA)KuE; format: cell-based; conditions: LNCaP cells, 1 hour, 37° C.
Description: Data is corrected for non-specific binding ([…]) and expressed as mean±SD (n=3).
Subsequent to the removal of the culture medium, the cells were washed once with 500 μL DMEM-F12 (5% BSA) and left to equilibrate for at least 15 min at 37° C. in 200 μL DMEM-F12 (5% BSA). Each well was treated with either 25 μL of either DMEM-F12 (5% BSA) or a 100 μM PMPA solution for blockade. Next, 25 μL of the ^68Ga/^18F-labeled PSMA inhibitor (5.0 nM) was added and the cells incubated at 37° C. for 60 min. The experiment was terminated by placing the 24-well plate on ice for 3 min and consecutive removal of the medium. Each well was rinsed with 250 μL HBSS and the fractions from these first two steps combined, representing the amount of free radioligand. Removal of surface bound activity was accomplished by incubation of the cells with 250 μL of ice-cold PMPA (10 μM in PBS) solution for 5 min and rinsed again with another 250 μL of ice-cold PBS. The internalized activity was determined by incubation of the cells in 250 μL 1 M NaOH and the combination with the fraction of a subsequent wash step with 250 μL 1.0 M NaOH. Each experiment (control and blockade) was performed in triplicate. Free, surface bound and internalized activity was quantified in a γ-counter. […] Data were corrected for non-specific internalization and normalized to the specific-internalization observed for the radioiodinated reference compound.

[3] = test system: LNCaP tumor-bearing SCID mice; test: Biodistribution at 1 h p.i. with competition (co-injected PMPA); format: in vivo; conditions: co-injected with PMPA (8 mg/kg)
Description: FIG. 11: Biodistribution [% ID/g] of ^18F-rhPSMAs co-injected with PMPA (8 mg/kg) at 1 h p.i in LNCaP tumor-bearing SCID mice. Data are expressed as mean±SD (n=3).

[4] = test system: LNCaP tumor bearing mouse; test: Radio-HPLC quantification of relative changes of each rhPSMA7 isomer after [18F]rhPSMA7-rac, 30 min p.i.; format: in vivo, mice; conditions: blood, liver, kidney, urine, 30 min p.i. of [18F][natGa]rhPSMA7-rac
Description: Analytical reversed-phase high pressure chromatography (RP-HPLC) were performed using Shimadzu gradient systems (Shimadzu Deutschland GmbH, Neufahrn, Germany), equipped with a SPD-20A UV/Vis detector (220 nm, 254 nm). […] Eluents for all HPLC operations were water (solvent A) and acetonitrile (solvent B), both containing 0.1% trifluoroacetic acid. […] The gradient for all HPLC operations was: 5% B isocratic 0-3 min, 25-35% B 3-43 min, 95-95% B 43-48 min.
In order to quantify the relative uptake of each isomer (rhPSMA-7.1-7.4), a tumor-bearing male CB-17-SCID mouse was injected with the racemic mixture of rhPSMA-7 (180-280 MBq, SA=247-349 GBq/μmol, produced at the Klinikum rechts der Isar in a fully automated procedure). […] The eluate was diluted with water and analysed by radio-HPLC. […]
Tumour and kidneys were separately homogenised in the tissue homogeniser with 1 mL of extraction buffer (850 μL 1 M HEPES pH7.4, 100 μL 20 mM PMPA and 100 μL 1M NaCl) for 30 min. […] The eluate of each organ was diluted with water and analysed by radio-HPLC.
The organs (tumour, kidney, liver) were separately homogenised in a 2 mL tube together with 3 grinding balls (3 mm diameter) and 1 mL of extraction buffer (850 μL 1 M HEPES pH7.4, 100 μL 20 mM PMPA and 100 μL 1M NaCl) for 10 min at 30 Hz. […] The eluate of each organ was diluted with water and analysed by radio-HPLC. […]

[5] = biological target: T1, PSMA (Homo sapiens, UniProt Q04609); test: Determination of IC50: PSMA affinity, competitive binding on LNCaP cells against ([125I]I-BA)KuE; conditions: LNCaP cells, [125I]IB-KuE c=0.2 nM, 1 h, 4° C.
T1 construct: endogenous in cells; host or cells: LNCaP cells
Description: Data are expressed as mean±SD (n=3, in 3 different experiments).
After removal of the culture medium, the cells were treated once with 500 μL of HBSS (Hank's balanced salt solution, Biochrom, Berlin, Germany, with addition of 1% bovine serum albumin (BSA)) and left 15 min on ice for equilibration in 200 μL HBSS (1% BSA). […] Quantification of bound and free radioligand was accomplished in a γ-counter.

[6] = biological target: T2, human serum albumin (Homo sapiens, UniProt P02768); test: HSA binding on Chiralpak HSA column; format: in vitro ADME; conditions: Chiralpak HSA column (50 × 3 mm, 5 μm)
T2 construct: purchased H13H-2433
T2 sequence (P02768 25-609): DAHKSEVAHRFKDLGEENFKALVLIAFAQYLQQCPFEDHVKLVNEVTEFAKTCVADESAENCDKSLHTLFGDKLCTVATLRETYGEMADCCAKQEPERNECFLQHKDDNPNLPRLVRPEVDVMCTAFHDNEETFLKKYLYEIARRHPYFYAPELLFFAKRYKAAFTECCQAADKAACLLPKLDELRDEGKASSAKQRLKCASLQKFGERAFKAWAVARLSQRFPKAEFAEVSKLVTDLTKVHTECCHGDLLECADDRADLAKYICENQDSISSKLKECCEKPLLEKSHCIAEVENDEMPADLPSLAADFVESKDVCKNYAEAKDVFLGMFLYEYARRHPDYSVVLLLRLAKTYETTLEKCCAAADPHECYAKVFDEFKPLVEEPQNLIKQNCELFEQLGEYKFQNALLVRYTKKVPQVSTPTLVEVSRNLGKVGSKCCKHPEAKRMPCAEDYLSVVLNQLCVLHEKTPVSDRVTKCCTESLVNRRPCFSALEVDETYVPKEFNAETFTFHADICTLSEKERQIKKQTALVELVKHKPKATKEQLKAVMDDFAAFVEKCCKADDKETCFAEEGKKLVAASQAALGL
Description: The mobile phase (A: NH4OAc, 50 mM in water, pH 7 and B: isopropanol) was freshly prepared for each experiment and only used for one day. The column was kept at room temperature and each run was stopped after detection of the signal to reduce the acquisition time. All substances were dissolved in a 0.5 mg/ml concentration in 50% 2-propanol and 50% 50 mM pH 6.9 ammonium acetate buffer. […] All nine reference substances were injected consecutively to establish a non-linear regression with Origin Pro 2016G.

T1 sequence (Q04609 whole entry): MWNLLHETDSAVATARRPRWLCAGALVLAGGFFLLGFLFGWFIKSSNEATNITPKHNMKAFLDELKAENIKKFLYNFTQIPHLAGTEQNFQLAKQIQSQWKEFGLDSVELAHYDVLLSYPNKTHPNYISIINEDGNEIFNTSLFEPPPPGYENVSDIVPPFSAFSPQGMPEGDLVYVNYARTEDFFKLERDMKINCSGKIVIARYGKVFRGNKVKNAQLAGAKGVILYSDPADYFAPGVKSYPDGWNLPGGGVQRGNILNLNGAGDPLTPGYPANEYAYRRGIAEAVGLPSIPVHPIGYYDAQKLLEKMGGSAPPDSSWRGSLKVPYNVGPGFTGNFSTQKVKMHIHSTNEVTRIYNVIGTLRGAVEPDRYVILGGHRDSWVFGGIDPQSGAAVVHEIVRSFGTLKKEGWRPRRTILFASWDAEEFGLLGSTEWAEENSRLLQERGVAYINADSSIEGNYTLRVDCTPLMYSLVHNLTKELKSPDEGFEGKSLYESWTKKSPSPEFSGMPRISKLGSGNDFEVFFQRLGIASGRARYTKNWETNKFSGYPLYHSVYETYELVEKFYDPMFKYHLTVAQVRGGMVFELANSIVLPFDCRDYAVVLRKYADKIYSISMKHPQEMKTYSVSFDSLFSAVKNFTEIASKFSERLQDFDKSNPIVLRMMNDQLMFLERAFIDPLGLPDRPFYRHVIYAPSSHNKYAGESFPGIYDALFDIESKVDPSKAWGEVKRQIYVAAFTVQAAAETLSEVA

CC(C)(C)[Si](F)(c1ccc(C(=O)NC[C@@H](NC(=O)CC[C@H](C(=O)O)N2CCN(CC(=O)[O-])CCN(CC(=O)[O-])CCN(CC(=O)[O-])CC2)C(=O)N[C@H](CCCCNC(=O)CCC(=O)NCCC[C@@H](NC(=O)CC[C@H](NC(=O)N[C@@H](CCC(=O)O)C(=O)O)C(=O)O)C(=O)O)C(=O)O)cc1)C(C)(C)C.[Ga+3] [rhPSMA7.1, [^19F][^natGa]D-Dap-R-DOTAGA-rhPSMA7]
Biodistribution adrenals [1]: 2.0 ± 0.25 % ID/g
Biodistribution blood [1]: 0.53 ± 0.13 % ID/g
Biodistribution bone [1]: 0.50 ± 0.31 % ID/g
Biodistribution heart [1]: 0.53 ± 0.03 % ID/g
Biodistribution intestine [1]: 0.30 ± 0.16 % ID/g
Biodistribution kidneys [1]: 220 ± 24.8 % ID/g
Biodistribution liver [1]: 0.75 ± 0.62 % ID/g
Biodistribution lung [1]: 1.1 ± 0.21 % ID/g
Biodistribution muscle [1]: 0.32 ± 0.30 % ID/g
Biodistribution pancreas [1]: 0.45 ± 0.12 % ID/g
Biodistribution spleen [1]: 20.0 ± 4.2 % ID/g
Biodistribution stomach [1]: 0.28 ± 0.17 % ID/g
Biodistribution tumor ([1]; LNCaP tumor): 14.1 ± 4.1 % ID/g
individual internalization rates ([2]; c=0.5 nM, single measurements): 77.5 % of [^125I]IB-KuE and 61.8 % of [^125I]IB-KuE and 70.6 % of [^125I]IB-KuE and 68.0 % of [^125I]IB-KuE and 67.9 % of [^125I]IB-KuE and 71.5 % of [^125I]IB-KuE
internalization rate Mean ([2]; mean): 69.55 % of [^125I]IB-KuE
Biodistribution adrenals [3]: 0.003 ± 0.004 % ID/g
Biodistribution blood [3]: 0.86 ± 0.40 % ID/g
Biodistribution bone [3]: 0.33 ± 0.24 % ID/g
Biodistribution heart [3]: 0.37 ± 0.16 % ID/g
Biodistribution intestine [3]: 0.66 ± 0.32 % ID/g
Biodistribution kidneys [3]: 10.9 ± 2.5 % ID/g
Biodistribution liver [3]: 0.43 ± 0.07 % ID/g
Biodistribution lung [3]: 0.85 ± 0.29 % ID/g
Biodistribution muscle [3]: 0.17 ± 0.15 % ID/g
Biodistribution pancreas [3]: 0.16 ± 0.10 % ID/g
Biodistribution spleen [3]: 0.21 ± 0.08 % ID/g
Biodistribution stomach [3]: 0.97 ± 0.81 % ID/g
Biodistribution tumor ([3]; LNCaP tumor): 0.94 ± 0.22 % ID/g
percentage change of isomer in sample with respect to its proportion in the injected solution [4]: largest positive percentage change
IC50 ([5]; HBSS+1% BSA, single measurements, read-out: individual IC50 measurements): 5.04 nM and 7.11 nM and 8.31 nM and 4.97 nM and 6.44 nM and 8.74 nM and 6.91 nM and 7.27 nM
IC50 ([5]; mean of individual measurements, read-out: IC50 Mean): 6.85 nM
HSA Binding [6]: 97.7%
